Reference: article PMC7568570, “Resensitizing carbapenem- and colistin-resistant bacteria to antibiotics using auranofin” (Nature Communications, 2020)

Biological target: T1, MCR-1 (Escherichia coli, UniProt A0A0R6L508)
T1 construct: gene mcr1; MCR-1-S, soluble periplasmic domain, residues 201-541 (200-541aa in Methods)
Assay: equilibrium dialysis with ICP-MS (Kd); crystal structure by soaking at […] Å; TLC cleavage inhibition of full-length MCR-1
Format: binding

T1 sequence (A0A0R6L508 201-541): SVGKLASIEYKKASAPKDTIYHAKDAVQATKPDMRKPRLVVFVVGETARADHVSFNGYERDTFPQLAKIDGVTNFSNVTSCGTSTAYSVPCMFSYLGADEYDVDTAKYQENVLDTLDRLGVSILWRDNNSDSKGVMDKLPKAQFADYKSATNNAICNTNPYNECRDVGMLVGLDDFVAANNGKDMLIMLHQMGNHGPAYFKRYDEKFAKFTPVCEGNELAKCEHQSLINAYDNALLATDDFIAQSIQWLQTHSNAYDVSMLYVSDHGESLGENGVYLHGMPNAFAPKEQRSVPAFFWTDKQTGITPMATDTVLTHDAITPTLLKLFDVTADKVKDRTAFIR

CC[P+](CC)(CC)[Au-][Cl] [Au(PEt3)Cl, chloro(triethylphosphine)gold(I)]
Kd: 3.36 ± 0.38 µM
